The text below walks through data of patent US12275731B2, “Azaindole inhibitors of wild-type and mutant forms of LRRK2” (DANA-FARBER CANCER INSTITUTE, INC., priority 2018, dated 2025).

Common to all, as to assay: KinomeScan profiling
What all share (type): binding

The target of assay [1] is T1, MEK4 (Homo sapiens, UniProt P45985).
T1 sequence (P45985 1-399): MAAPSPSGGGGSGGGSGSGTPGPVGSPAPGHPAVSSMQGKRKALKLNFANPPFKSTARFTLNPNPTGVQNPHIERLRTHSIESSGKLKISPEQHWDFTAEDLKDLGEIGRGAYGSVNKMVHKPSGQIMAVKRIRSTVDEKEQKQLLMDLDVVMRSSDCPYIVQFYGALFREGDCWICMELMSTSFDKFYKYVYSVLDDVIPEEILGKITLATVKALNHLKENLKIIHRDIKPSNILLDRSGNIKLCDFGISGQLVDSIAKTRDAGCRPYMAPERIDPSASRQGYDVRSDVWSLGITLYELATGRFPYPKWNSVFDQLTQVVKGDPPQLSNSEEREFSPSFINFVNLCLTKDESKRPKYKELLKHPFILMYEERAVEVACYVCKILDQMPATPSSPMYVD
The settings on record: MEK4, 1 μM; read-out: % control. The method in brief: (§1)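 Test agents were profiled at a single concentration of 1 μM (DMSO vehicle) on a near-complete set of 468 kinases. Signal is reported relative to vehicle (100%) and a fully displacing control (0%).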

The target of assay [2] is T2, BRSK2 (Homo sapiens, UniProt Q8IWQ3).
T2 sequence (Q8IWQ3 1-736): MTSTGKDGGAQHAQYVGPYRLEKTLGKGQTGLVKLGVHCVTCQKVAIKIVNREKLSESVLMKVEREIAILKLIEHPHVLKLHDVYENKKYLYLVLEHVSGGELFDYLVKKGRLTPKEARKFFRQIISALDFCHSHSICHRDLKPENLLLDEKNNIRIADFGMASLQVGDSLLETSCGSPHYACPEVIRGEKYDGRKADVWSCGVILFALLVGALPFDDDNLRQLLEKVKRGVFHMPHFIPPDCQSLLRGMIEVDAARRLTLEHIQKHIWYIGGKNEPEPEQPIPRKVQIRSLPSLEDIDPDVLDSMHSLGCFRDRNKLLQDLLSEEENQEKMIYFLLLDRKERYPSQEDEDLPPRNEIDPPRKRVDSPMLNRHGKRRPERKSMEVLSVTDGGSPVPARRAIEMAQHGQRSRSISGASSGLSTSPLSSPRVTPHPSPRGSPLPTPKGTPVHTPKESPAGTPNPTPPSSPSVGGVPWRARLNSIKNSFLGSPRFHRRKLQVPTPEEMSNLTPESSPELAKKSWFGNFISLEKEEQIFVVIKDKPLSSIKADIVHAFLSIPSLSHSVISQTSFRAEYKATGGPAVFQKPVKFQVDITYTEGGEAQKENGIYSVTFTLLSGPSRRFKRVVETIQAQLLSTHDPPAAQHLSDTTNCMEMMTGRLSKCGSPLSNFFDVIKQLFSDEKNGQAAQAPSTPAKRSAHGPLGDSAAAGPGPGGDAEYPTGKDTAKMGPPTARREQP
As to conditions: BRSK2, 1 μM; read-out: % control. The method in brief:
as §1

The target in assay [3] is PAK7 (Homo sapiens, UniProt Q9P286). As to conditions: PAK7, 1 μM; read-out: % control. The method in brief:
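Compounds were screened at 1 μM in DMSO across a 468-kinase KinomeScan panel. Binding was expressed as % control, scaled between a positive control (0%) and DMSO (100%) using luminescence signal. A value under 35% counted as active.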

The target of assay [4] is T3, AKT2 (Homo sapiens, UniProt P31751).
T3 construct: purchased KinomeScan®
T3 sequence (P31751 whole entry): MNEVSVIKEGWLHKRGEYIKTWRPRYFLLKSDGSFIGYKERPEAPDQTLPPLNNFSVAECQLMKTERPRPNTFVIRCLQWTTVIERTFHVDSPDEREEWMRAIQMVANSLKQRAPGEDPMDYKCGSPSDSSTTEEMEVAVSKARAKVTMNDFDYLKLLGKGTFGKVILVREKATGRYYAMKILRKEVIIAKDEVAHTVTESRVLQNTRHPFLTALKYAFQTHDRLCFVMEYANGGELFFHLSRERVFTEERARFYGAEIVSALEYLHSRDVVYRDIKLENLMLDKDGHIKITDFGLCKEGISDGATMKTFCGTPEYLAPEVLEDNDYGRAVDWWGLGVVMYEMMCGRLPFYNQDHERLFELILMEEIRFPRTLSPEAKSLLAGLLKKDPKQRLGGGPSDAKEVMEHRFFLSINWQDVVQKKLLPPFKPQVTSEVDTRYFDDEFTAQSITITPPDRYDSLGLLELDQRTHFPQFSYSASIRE
As to conditions: AKT2, 1 μM; read-out: % control. In outline:
as §1

In assay [5] the target is T4, MYO3B (Homo sapiens, UniProt Q8WXR4).
T4 sequence (Q8WXR4 1-1341): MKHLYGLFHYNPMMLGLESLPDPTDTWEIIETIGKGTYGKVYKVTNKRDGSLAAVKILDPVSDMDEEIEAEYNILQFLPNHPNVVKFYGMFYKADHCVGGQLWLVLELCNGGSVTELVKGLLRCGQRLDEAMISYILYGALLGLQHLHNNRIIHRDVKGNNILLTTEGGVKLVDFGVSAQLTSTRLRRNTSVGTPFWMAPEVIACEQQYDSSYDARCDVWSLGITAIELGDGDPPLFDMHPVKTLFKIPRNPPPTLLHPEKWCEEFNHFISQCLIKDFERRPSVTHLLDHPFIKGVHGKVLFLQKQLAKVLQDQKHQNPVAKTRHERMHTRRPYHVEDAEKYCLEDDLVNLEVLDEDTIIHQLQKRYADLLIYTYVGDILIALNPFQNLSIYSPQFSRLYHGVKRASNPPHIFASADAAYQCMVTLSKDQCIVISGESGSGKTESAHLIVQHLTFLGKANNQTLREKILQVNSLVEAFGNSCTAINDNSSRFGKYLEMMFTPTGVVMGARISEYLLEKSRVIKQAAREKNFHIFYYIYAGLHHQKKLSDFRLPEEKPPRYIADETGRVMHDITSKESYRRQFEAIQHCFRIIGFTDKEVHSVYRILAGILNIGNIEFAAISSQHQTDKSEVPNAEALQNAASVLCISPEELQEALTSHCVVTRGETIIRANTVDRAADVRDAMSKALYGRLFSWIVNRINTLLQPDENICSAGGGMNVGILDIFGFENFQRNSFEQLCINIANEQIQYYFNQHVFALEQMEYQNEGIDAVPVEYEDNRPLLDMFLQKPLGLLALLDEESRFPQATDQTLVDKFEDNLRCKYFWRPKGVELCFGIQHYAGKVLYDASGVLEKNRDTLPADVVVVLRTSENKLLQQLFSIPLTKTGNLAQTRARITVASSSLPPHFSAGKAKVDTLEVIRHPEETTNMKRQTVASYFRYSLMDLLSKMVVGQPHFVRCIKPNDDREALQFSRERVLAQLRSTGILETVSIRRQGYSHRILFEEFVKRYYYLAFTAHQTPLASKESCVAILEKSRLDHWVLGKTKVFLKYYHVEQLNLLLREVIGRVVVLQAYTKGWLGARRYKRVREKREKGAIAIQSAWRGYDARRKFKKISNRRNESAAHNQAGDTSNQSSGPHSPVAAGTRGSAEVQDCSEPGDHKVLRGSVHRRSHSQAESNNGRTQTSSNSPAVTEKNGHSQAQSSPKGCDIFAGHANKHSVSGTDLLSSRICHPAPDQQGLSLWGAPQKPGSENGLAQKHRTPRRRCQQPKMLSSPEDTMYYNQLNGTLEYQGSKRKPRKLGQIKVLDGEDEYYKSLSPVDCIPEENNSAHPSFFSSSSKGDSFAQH
As to conditions: read-out: % control. In outline:
as §1

Chain of PAK7 (Q9P286 whole entry): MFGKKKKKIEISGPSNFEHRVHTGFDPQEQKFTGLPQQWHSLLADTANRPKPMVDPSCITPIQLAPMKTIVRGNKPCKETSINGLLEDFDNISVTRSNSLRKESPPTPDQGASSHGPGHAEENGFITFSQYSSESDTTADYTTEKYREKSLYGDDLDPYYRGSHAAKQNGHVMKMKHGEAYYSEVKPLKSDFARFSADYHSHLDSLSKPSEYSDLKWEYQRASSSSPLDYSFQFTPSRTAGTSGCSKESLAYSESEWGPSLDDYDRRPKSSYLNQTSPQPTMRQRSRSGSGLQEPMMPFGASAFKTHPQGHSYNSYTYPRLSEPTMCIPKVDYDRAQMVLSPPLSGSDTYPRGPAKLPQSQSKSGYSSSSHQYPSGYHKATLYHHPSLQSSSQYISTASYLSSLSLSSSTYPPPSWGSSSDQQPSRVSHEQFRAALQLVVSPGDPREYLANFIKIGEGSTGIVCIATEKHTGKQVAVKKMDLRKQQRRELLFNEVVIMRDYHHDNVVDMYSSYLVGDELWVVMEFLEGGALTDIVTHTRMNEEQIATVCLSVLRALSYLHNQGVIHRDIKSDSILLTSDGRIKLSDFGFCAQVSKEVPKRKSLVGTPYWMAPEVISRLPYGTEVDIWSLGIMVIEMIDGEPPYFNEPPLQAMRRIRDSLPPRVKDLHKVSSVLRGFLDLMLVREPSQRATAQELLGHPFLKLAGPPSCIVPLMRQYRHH

In the case of `CNc1c(-c2ccc(C(=O)N3CCC(N4CCOCC4)CC3)cc2)cnc2[nH]cc(Cl)c12` [Compound 96, (4-(3-chloro-4-(methylamino)-1H-pyrrolo[2,3-b]pyridin-5-yl)phenyl)(4-morpholinopiperidin-1-yl)methanone], the remaining binding at 1 µM in assay [1] worked out at 7.3%; in assay [2], 95%; in assay [3], 41%; in assay [4], 100%; in assay [5] it was 73%.

Take `O=C(c1ccc(-c2cnc3[nH]cc(Cl)c3c2NC2CCCC2)cc1)N1CCC(N2CCOCC2)CC1` [Compound 101, (4-(3-chloro-4-(cyclopentylamino)-1H-pyrrolo[2,3-b]pyridin-5-yl)phenyl)(4-morpholinopiperidin-1-yl)methanone]: the remaining binding at 1 µM in assay [1] came out at 28%; in assay [2], 94%; in assay [3] it was 95%; in assay [4] it was 84%; in assay [5], 93%.

For `CNc1c(-c2cnn([C@H]3CCN(C(C)=O)C[C@@H]3F)c2)cnc2[nH]cc(Cl)c12` [Compound 77, 1-((3S,4S)-4-(4-(3-chloro-4-(methylamino)-1H-pyrrolo[2,3-b]pyridin-5-yl)-1H-pyrazol-1-yl)-3-fluoropiperidin-1-yl)ethan-1-one], the remaining binding at 1 µM in assay [1] is 45%; in assay [2], 100%; in assay [3], 100%; in assay [4], 100%; in assay [5], 96%.
